Drawing on PubChem BioAssay (NCI), this text covers TGI for 8 compounds.

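Test compounds were applied to cells in 96-well plates for 48 hours at 5 doses. The concentration for full growth arrest is given as TGI.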

Test systems include COLO 205 colon; DU-145 prostate; EKVX NSCLC; HOP-62 NSCLC; LOX IMVI melanoma; MALME-3M melanoma; MDA-MB-231 breast; OVCAR-3 ovarian; OVCAR-5 ovarian; PC-3 prostate; SF-295 CNS; SF-539 CNS; SK-MEL-28 melanoma; SK-OV-3 ovarian; SN12C renal; SNB-19 CNS; SNB-75 CNS; SR leukemia; SW-620 colon; HL-60(TB) leukemia.
Assay in all cases: DTP human tumour cell line panel, 48 h

Consider `CCN(CC)C1Oc2cc3c(cc2C(c2ccc(OC)cc2)C1C)OCO3` (configuration not stated), for which the TGI with COLO 205 colon turned out to be 34.5 µM; in the experiment with DU-145 prostate, 76.4 µM; in the experiment on EKVX NSCLC it was 49.9 µM; in the experiment on HOP-62 NSCLC, 54.9 µM; in the experiment on LOX IMVI melanoma, 34.1 µM; with MALME-3M melanoma, 37.3 µM. Further, the TGI with MDA-MB-231 breast was 49.2 µM; in the experiment on OVCAR-3 ovarian it was 37.1 µM; in the experiment with OVCAR-5 ovarian it was 58.9 µM; in the experiment on PC-3 prostate, 72.6 µM; in the experiment with SF-295 CNS, 63.1 µM; in the experiment with SF-539 CNS it was 40.1 µM. The TGI in the experiment on SK-MEL-28 melanoma worked out at 50.8 µM; with SK-OV-3 ovarian, 97.4 µM; with SN12C renal, 63 µM; in the experiment with SNB-19 CNS, 83.7 µM; in the experiment on SNB-75 CNS it was 59.7 µM; with SR leukemia, 27.6 µM. Besides, in the experiment with SW-620 colon, the TGI was greater than 100 µM.
Regarding `COC1CC(C)C(OC)C2=CC(=O)C=C(NC(=O)/C(C)=C/C=C\C(C)C(OC(N)=O)/C(C)=C\C(C)C1OC)C2=O` (configuration not stated), the TGI in the experiment on COLO 205 colon was 3.19 µM; with DU-145 prostate, 15.9 µM; in the experiment on EKVX NSCLC it was 23.1 µM; with HL-60(TB) leukemia, 1.13 µM; in the experiment on HOP-62 NSCLC, 10.5 µM; in the experiment with LOX IMVI melanoma, 3.66 µM. In addition, the concentration for total growth inhibition (TGI) amounted to 12 µM in the experiment with MALME-3M melanoma; 1.48 µM with OVCAR-3 ovarian; 17.8 µM in the experiment with OVCAR-5 ovarian; 23.6 µM in the experiment on PC-3 prostate; 13.4 µM in the experiment on SF-295 CNS; 1.04 µM with SF-539 CNS. Besides, the concentration for total growth inhibition (TGI) is 1.05 µM with SK-MEL-28 melanoma; 2.81 µM in the experiment on SK-OV-3 ovarian; 5.48 µM in the experiment with SN12C renal; 18.1 µM in the experiment on SNB-19 CNS; 16.1 µM with SNB-75 CNS; 0.729 µM in the experiment on SR leukemia. In addition, in the experiment with SW-620 colon, the TGI worked out at 1.05 µM.
In the case of `O=C(c1cc(Cl)cc(Cl)c1)N(C(=O)N1CCN(c2ccccc2)CC1)c1ccccc1`, the TGI is 39.6 µM with COLO 205 colon; greater than 100 µM with DU-145 prostate; greater than 100 µM in the experiment with EKVX NSCLC; greater than 100 µM in the experiment with HL-60(TB) leukemia; greater than 100 µM in the experiment with HOP-62 NSCLC; greater than 100 µM with LOX IMVI melanoma. In addition, the TGI in the experiment with MALME-3M melanoma, with MDA-MB-231 breast, in the experiment with OVCAR-3 ovarian, with OVCAR-5 ovarian, with PC-3 prostate and with SF-295 CNS was greater than 100 µM throughout. Moreover, the TGI in the experiment on SF-539 CNS, in the experiment on SK-MEL-28 melanoma, with SK-OV-3 ovarian, in the experiment with SN12C renal, in the experiment on SNB-19 CNS and with SNB-75 CNS was greater than 100 µM in each case. In the experiment with SW-620 colon, this compound had a TGI greater than 100 µM.
Turning to `Cc1oc2c(c1C)S(=O)(=O)C(C#N)=C(c1ccccc1)N2`, the TGI in the experiment with COLO 205 colon, in the experiment with DU-145 prostate, in the experiment on EKVX NSCLC, in the experiment on HOP-62 NSCLC, in the experiment on LOX IMVI melanoma and in the experiment with MALME-3M melanoma was greater than 100 µM each time. In addition, the TGI in the experiment with MDA-MB-231 breast, with OVCAR-3 ovarian, in the experiment on OVCAR-5 ovarian, in the experiment with PC-3 prostate, with SF-295 CNS and in the experiment with SF-539 CNS was greater than 100 µM throughout. The TGI in the experiment with SK-MEL-28 melanoma, in the experiment on SK-OV-3 ovarian, in the experiment with SN12C renal, in the experiment on SNB-19 CNS, in the experiment with SNB-75 CNS and with SR leukemia was greater than 100 µM each time. Moreover, the TGI with SW-620 colon was greater than 100 µM.
Take `Ic1ncnc2c1ncn2C1CCCO1` (configuration not stated): the TGI in the experiment with COLO 205 colon, with EKVX NSCLC, in the experiment with HL-60(TB) leukemia, in the experiment on HOP-62 NSCLC, in the experiment on LOX IMVI melanoma and in the experiment with MALME-3M melanoma was greater than 100 µM in each case. The TGI in the experiment on OVCAR-3 ovarian, in the experiment with OVCAR-5 ovarian, with SF-295 CNS, in the experiment on SF-539 CNS, in the experiment with SK-MEL-28 melanoma and with SK-OV-3 ovarian was greater than 100 µM each time. The concentration for total growth inhibition (TGI) with SN12C renal, in the experiment on SNB-19 CNS, in the experiment on SNB-75 CNS, with SR leukemia and in the experiment with SW-620 colon was greater than 100 µM throughout.
`O=C(Nc1cccc2ccccc12)Nn1cnnc1`: the TGI with COLO 205 colon, in the experiment on DU-145 prostate, in the experiment with EKVX NSCLC, with HL-60(TB) leukemia, with HOP-62 NSCLC and in the experiment on LOX IMVI melanoma was greater than 100 µM in each case. Besides, the TGI with MALME-3M melanoma, in the experiment with OVCAR-3 ovarian, in the experiment on OVCAR-5 ovarian, in the experiment on PC-3 prostate, in the experiment on SF-295 CNS and in the experiment on SF-539 CNS was greater than 100 µM in each case. The TGI in the experiment on SK-MEL-28 melanoma, in the experiment on SK-OV-3 ovarian, in the experiment on SN12C renal, in the experiment on SNB-19 CNS, in the experiment on SNB-75 CNS and in the experiment with SR leukemia was greater than 100 µM in each case. Also, the TGI in the experiment on SW-620 colon is greater than 100 µM.
Regarding `O=C1CC(=O)NC(=NN2C(=O)/C(=C/C(=O)c3ccco3)N=C2c2ccccc2)N1`, the TGI in the experiment with COLO 205 colon, in the experiment with DU-145 prostate, in the experiment with HOP-62 NSCLC, with MALME-3M melanoma, with MDA-MB-231 breast and in the experiment with OVCAR-3 ovarian was greater than 100 µM throughout. Also, the TGI in the experiment with OVCAR-5 ovarian, in the experiment on PC-3 prostate, in the experiment on SF-295 CNS, with SF-539 CNS, in the experiment with SK-MEL-28 melanoma and in the experiment on SK-OV-3 ovarian was greater than 100 µM throughout. Further, the TGI is greater than 100 µM in the experiment with SN12C renal, greater than 100 µM in the experiment with SNB-75 CNS, 41.3 µM in the experiment on SR leukemia and greater than 100 µM in the experiment on SW-620 colon.
`CNc1c2cccc(C)c2nc2c(C(=O)NCCN(C)C)cccc12`: the TGI in the experiment with COLO 205 colon came to 0.278 µM; in the experiment with DU-145 prostate, 0.684 µM; with EKVX NSCLC, 1.33 µM; with HOP-62 NSCLC, 0.578 µM; in the experiment on LOX IMVI melanoma, 0.391 µM; in the experiment with MALME-3M melanoma, 0.692 µM. In addition, the concentration for total growth inhibition (TGI) in the experiment on MDA-MB-231 breast was found to be 0.274 µM; with OVCAR-3 ovarian it was 1.05 µM; in the experiment on OVCAR-5 ovarian, 1.1 µM; with PC-3 prostate, 0.88 µM; in the experiment with SF-295 CNS, 0.952 µM; in the experiment with SF-539 CNS it was 0.245 µM. Further, the TGI with SK-MEL-28 melanoma worked out at 1.17 µM; in the experiment with SK-OV-3 ovarian, 1.94 µM; with SN12C renal, 0.719 µM; with SNB-19 CNS, 0.876 µM; in the experiment on SNB-75 CNS, 0.592 µM; in the experiment with SR leukemia, 0.469 µM. In the experiment on SW-620 colon, this compound showed a TGI of 0.424 µM.
